# Read-outs that look alike come from different tables or passages of the source. Positions of bridges follow the written chain, without caps; N, C: chain ends. Residues, ends and D or L forms follow the SMILES beside them.
# Legend:
# S. aureus (ATCC 25923) = type: cell-based, Staphylococcus aureus; settings: ATCC 25923, 1 h
# Method: The temperature, serum, and pH stability of antimicrobial peptide Brevinin-1BW was investigated. S. aureus (ATCC 25923) was used to determine its stability. The antimicrobial peptide solution was prepared and placed at −20 °C, 4 °C, 37 °C, 60 °C, and 100 °C for 1 h. The MIC was measured with 96-well plate method to detect the effect of temperature. […] The pH stability was achieved by inoculating S. aureus into MH medium and culturing them with shaking to reach the logarithmic growth phase. This was then diluted to 10^6 CFU/mL. Brevinin-1BW was incubated in PBS at various pH values, pH = 2 or 12, for 1 h at 37 °C. The minimal inhibitory concentrations (MIC) of the peptides were then determined. All the above experiments were repeated more than three times.
# [1] = LPS-binding assay, checkerboard with S. aureus; type: cell-based; settings: LPS higher than 5 μg/mL, 37 °C, 18 h, OD600
# Method: The lipopolysaccharide-binding assay was performed using the checkerboard method. Dissolve and prepare LPS (Solarbio, Beijing, China) and Brevinin-1BW with Muller Hinton (MH), add LPS with a final concentration of 0–160 μg/mL along the X-axis, and add 100–0 μg/mL Brevinin-1BW along the Y-axis. Then, an additional 10^5 CFU of S. aureus was added to bring the final volume to 200 μL. It was incubated at 37 °C for 18 h, measure the OD 600 value, and the MIC value at different LPS concentrations was recorded. The experiment was repeated three times.
# DPPH radical scavenging = settings: at 3.125 μg/mL, 37 °C, 30 min in the dark, absorbance 517 nm; without concentration dependence
# Method: DPPH^+ scavenging capacity: A 30 mL volume of […], Shanghai, China) solution was prepared with anhydrous ethanol and adjusted to reach an OD517 nm = 0.7. […] The Brevinin-1BW and DPPH solutions were mixed in equal volumes as the experimental group, incubated at 37 °C in the dark for 30 min, and then measured for the absorbance as A2. Vitamin C was used as the positive control. Its clearance rate was calculated according to the following formula: […]
# [2] = test system: E. hormaechei (ATCC700323); assay: microbe, parasite or virus in culture; type: cell-based, Enterobacter hormaechei; settings: ATCC700323, 18 h
# Method: (§1) The minimum inhibitory concentration (MIC) of the Brevinin-1BW was measured in 96-well microtiter plates according to the Clinical and Laboratory Standards Institute (CLSI). The activated strains were treated with Mueller Hinton Agar (MHA) solid medium. Single colonies were picked and expanded to the logarithmic growth phase, and the solution was diluted to 2 × 10^6 CFU/mL using the McFarland turbidity standard. The MIC was determined with the two-fold dilution method. Briefly, 50 μL of Mueller Hinton (MH) medium was added to a 96-well plate in advance. Then, 50 μL of AMP solution was added to the first well, and 50 μL was pipetted into the next well after mixing using a row gun, while 50 μL was discarded from the last well. Final concentrations of Brevinin-1BW were 100, 50, 25, 12.5, 6.25, and 3.125 μg/mL. A 50 μL volume of the diluted bacterial solution was added, and the final concentration of the bacterial solution was 1 × 10^6 CFU/mL. This was then placed into a 37 °C incubator for 18 h until the next day to observe the degree of turbidity of the 96-well plate and measure the absorbance of the wells at 600 nm with a multifunctional microplate reader (SpectraMax iD5, Molecular Devices, Sunnyvale, CA, USA). The absence of turbidity and the measured concentration of absorbance being less than the opposing group was taken as the MIC. The positive control used ampicillin at the same final concentration as Brevinin-1BW, the negative control used 50 μL of MH medium mixed with 50 μL of 2 × 10^6 CFU/mL bacterial solution, and the blank contained only 100 μL of MH medium. Three replicate wells were set up for each experiment, and each experiment was repeated three times. The MIC and all concentrations above the MIC of bacterial solution coated on MHA solid medium were placed into 37 °C incubator incubation for 18 h. The lowest concentration resulting in no colony growth was taken as the minimum bactericidal concentration (MBC).
# E. faecalis (ATCC29212) = assay: microbe, parasite or virus in culture; type: cell-based, Enterococcus faecalis; settings: ATCC29212, 18 h
# Method: as §1
# HFF = type: cell-based, human; settings: 24 h
# sheep erythrocytes = type: cell-based; settings: red cells of sheep, 2 h
# Method: A hemolytic assay of Brevinin-1BW was conducted using sheep erythrocytes (Solarbio, Beijing, China) at a concentration of 2% (v/v) of erythrocyte suspension. […] After centrifugation at 1000 rpm for 15 min, the absorbance of the supernatant was analyzed using a multifunctional enzyme standardizer with the wavelength set at 570 nm. The experiment was repeated three times. […] Haemolysis%=(A0−A2)/(A0−A1)×100
# IL-1β mRNA = assay: mRNA expression in LPS-treated RAW264.7 cells, real-time PCR; type: cell-based, mouse
# Method: (§2) RAW 264.7 mouse macrophages were cultured in DMEM medium (Gibco, New York, NY, USA). containing 10% FBS (TransGen Biotech, Beijing, China) and 1% penicillin-streptomycin (Biosharp, Guangzhou, China) and were seeded into 6-well plates at a cell density of 10^5 cells/mL. After cell adhesion, 1 μg/mL LPS (Solarbio, Beijing, China) and different concentrations of Brevinin-1BW (0, 1, 2, 3, and 4 μg/mL) were incubated for 24 h. Culture supernatants were collected, and the contents of TNFα, IL-6, and IL-1β were determined with enzyme-linked immunosorbent assay (BOSTER, Wuhan, China). All cells were washed twice with precooled PBS, total cellular RNA was extracted using the RNAsimple Total RNA Extraction kit (TIANGEN, Beijing, China), and total RNA concentration and purity were determined using a Thermo Fisher NanoDropOne nucleic acid protein spectrophotometer. HiScript II 1st Strand cDNA Synthesis Kit (Vazyme, Nanjing, China) synthesized cDNA, and we performed real-time PCR using Hieff® qPCR SYBR Green Master Mix (No Rox) (YEASEN, Shanghai, China). The primer sequences for Beta-actin (β-Actin), interleukins (IL-6, IL-1β), tumor necrosis factor (TNF-α), and nitric oxide synthase (iNOS) are shown in Table 6. Cells incubated without peptide and/or LPS were used as negative control. All experiments were repeated three times.
# IL-6 mRNA = assay: as above; type: cell-based, mouse
# Method: as §2
# iNOS mRNA = assay: as above; type: cell-based, mouse
# Method: as §2
# TNF-α mRNA = assay: as above; type: cell-based, mouse
# Method: as §2
smiles,measurement,setting,value
CC[C@H](C)[C@@H]1NC(=O)[C@H](CCCCN)NC(=O)[C@@H](NC(=O)[C@H](Cc2ccccc2)NC(=O)[C@@H](NC(=O)[C@@H](NC(=O)[C@@H]2CCCN2C(=O)[C@H](CC(C)C)NC(=O)[C@H](Cc2ccccc2)NC(=O)[C@H](CO)NC(=O)[C@H](C)NC(=O)[C@H](C)NC(=O)[C@H](CC(C)C)NC(=O)CNC(=O)[C@H](C)NC(=O)[C@H](CC(C)C)NC(=O)[C@H](CC(C)C)NC(=O)[C@@H]2CCCN2C(=O)[C@H](CC(C)C)NC(=O)[C@@H](N)Cc2ccccc2)[C@@H](C)O)[C@@H](C)CC)CSSC[C@@H](C(=O)O)NC(=O)[C@H](CCCCN)NC(=O)[C@H](CCCNC(=N)N)NC(=O)[C@H](CO)NC1=O [Brevinin-1BW] (H-FLPLLAGLAASFLPTIFCKISRKC-OH; disulfide 18-24),MIC after temperature treatment,S. aureus (ATCC 25923),6.25 µg/mL
same,MIC after pH treatment,S. aureus (ATCC 25923); pH 2,6.25 µg/mL
same,MIC after pH treatment,S. aureus (ATCC 25923); pH 12,6.25 µg/mL
same,antibacterial activity against S. aureus in the presence of LPS,[1],gradually decreased
same,scavenging of DPPH radicals,DPPH radical scavenging,more than 70%
same,MBC,[2],>100 µg/mL
same,MIC,[2],100 µg/mL
same,MBC,E. faecalis (ATCC29212),12.5 µg/mL
same,MIC,E. faecalis (ATCC29212),3.125 µg/mL
same,CC50,HFF,33.99 ± 0.48 µg/mL
same,HC50 (50% hemolytic concentration),sheep erythrocytes,35.8 µg/mL
same,decrease of IL-1β mRNA expression level,IL-1β mRNA,95.5%
same,decrease of IL-6 mRNA expression level,IL-6 mRNA,93.72%
same,decrease of iNOS mRNA expression level,iNOS mRNA,81.37%
same,decrease of TNF-α mRNA expression level,TNF-α mRNA,86.94%

# Source: PMC11013252, “Exploration of the Antibacterial and Anti-Inflammatory Activity of a Novel Antimicrobial Peptide Brevinin-1BW” (Molecules, 2024)
